According to ChEMBL document CHEMBL3046432, “Synthesis of new series of pyrimido[4,5-b][1,4] benzothiazines as 15-lipoxygenase inhibitors and study of their inhibitory mechanism” (Med Chem Res, 2013):

What was measured:
[1] = test system: Radical scavenging activity; experiment: Antioxidant activity assessed as inhibition of DPPH radical […]; type: functional
[2] = target: T1, Seed linoleate 13S-lipoxygenase-1 (Glycine max, UniProt P08170); experiment: Inhibition of Glycine max (soybean) 15-lipoxygenase activity assessed as decrease in peroxide formation using linoleic acid as substrate preincubated with enzyme for 5 min prior to substrate addition measured after 7 min by MBTH-DMAB method
T1 sequence (P08170 whole entry): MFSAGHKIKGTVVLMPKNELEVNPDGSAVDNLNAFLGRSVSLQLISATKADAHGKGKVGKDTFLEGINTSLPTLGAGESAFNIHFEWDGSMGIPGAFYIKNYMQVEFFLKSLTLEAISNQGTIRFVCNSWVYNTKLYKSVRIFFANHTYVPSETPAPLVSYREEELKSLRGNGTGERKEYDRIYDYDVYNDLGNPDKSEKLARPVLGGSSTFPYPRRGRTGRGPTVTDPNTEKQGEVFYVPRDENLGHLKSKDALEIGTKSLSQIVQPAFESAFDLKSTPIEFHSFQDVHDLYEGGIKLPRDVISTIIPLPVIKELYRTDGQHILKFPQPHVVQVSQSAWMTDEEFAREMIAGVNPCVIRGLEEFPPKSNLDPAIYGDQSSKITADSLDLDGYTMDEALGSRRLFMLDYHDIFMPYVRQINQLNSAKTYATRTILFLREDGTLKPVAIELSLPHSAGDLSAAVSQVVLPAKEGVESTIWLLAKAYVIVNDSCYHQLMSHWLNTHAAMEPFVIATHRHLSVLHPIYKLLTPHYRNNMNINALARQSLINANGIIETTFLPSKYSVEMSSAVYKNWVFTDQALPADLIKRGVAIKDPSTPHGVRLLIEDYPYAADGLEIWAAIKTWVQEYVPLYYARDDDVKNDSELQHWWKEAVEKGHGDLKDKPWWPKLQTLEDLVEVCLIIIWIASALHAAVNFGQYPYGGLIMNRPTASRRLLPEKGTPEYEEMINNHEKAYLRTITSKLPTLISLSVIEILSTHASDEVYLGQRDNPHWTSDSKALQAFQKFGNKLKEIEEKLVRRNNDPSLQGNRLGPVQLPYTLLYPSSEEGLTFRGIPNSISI

[3] = target: T1, Seed linoleate 13S-lipoxygenase-1; experiment: Inhibition of Glycine max (soybean) 15-lipoxygenase activity using linoleic acid as substrate by MBTH-DMAB method

SMILES | IC50 [1] [µM] | Ki [2] [µM] | IC50 [3] [µM]
CCCc1nc(N2CCCCC2)nc2c1Nc1ccccc1S2 | 621 | 0.662 | 121
CCCc1nc(N2CCC(C)CC2)nc2c1Nc1ccccc1S2 | 599 | 0.486 | 86.3
CCCc1nc(N2CCOCC2)nc2c1Nc1ccccc1S2 | 669 | 2.01 | 726
CCCc1nc(N2CCN(c3ccccc3)CC2)nc2c1Nc1ccccc1S2 | 357 | 1.16 | 404
CCCc1nc(N2CCCC2)nc2c1Nc1ccccc1S2 | 311 | 1.84 | 611
Cc1nc(N2CCN(C)CC2)nc2c1Nc1ccccc1S2 | 69.6 | 0.198 | 19.5
CCCc1nc(N2CCN(C)CC2)nc2c1Nc1ccccc1S2 | 17.3 | 0.192 | 8.9
